Assay results as given in ChEMBL document CHEMBL4831557, “Parthenolide Derivatives as PKM2 Activators Showing Potential in Colorectal Cancer” (J Med Chem, 2021).
Active and inactive are the calls of the source. The rule behind the calls is not given here.

Key:
HT-29 [1] = assay: Induction of apoptosis in human HT-29 cells assessed as decrease in PARP expression at 0.45 to 1.8 uM after 48 hrs by Western blotting analysis; type: functional, cell-based; settings: dose 0.45-1.8 µM
Pyruvate kinase PKM [2] = target: T1, Pyruvate kinase PKM (Homo sapiens, UniProt P14618); assay: Inhibition of PKM2/STAT3 in human HT-29 cells assessed as increase in bax protein expression at 0.45 to 1.8 uM incubated for 48 hrs by Western blot analysis; type: cell-based; settings: dose 0.45-1.8 µM
Target sequence in this assay (P14618 2-531 limits assumed): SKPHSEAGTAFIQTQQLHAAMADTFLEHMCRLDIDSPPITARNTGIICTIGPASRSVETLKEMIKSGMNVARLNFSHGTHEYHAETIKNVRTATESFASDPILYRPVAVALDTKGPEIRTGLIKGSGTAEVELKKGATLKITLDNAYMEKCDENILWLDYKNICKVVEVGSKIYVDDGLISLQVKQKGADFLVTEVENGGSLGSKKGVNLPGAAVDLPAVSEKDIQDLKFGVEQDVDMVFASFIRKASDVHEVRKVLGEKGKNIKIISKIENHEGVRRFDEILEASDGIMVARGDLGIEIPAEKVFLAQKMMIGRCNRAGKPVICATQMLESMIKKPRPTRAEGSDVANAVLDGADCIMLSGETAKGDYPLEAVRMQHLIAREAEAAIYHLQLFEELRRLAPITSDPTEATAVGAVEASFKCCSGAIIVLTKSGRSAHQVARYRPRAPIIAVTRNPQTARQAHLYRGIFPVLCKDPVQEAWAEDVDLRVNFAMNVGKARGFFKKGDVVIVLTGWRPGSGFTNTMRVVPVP

SW480 [3] = assay: Induction of apoptosis in human SW480 cells after 48 hrs by Annexin V-PE and 7-AAD staining based flow cytometric analysis; type: functional, cell-based; settings: dose 0.2-0.8 µM
Pyruvate kinase PKM [4] = target: T1, Pyruvate kinase PKM; assay: Activation of PKM2 in human HT-29 cells assessed as increase in cell basal respiration; type: cell-based; settings: filed as activator
Target sequence in this assay (P14618 2-531 limits assumed): as above

Pyruvate kinase PKM [5] = target: T1, Pyruvate kinase PKM; assay: Inhibition of PKM2/STAT3 in human HT-29 cells assessed as reduction in bcl-xl protein expression at 0.45 to 1.8 uM incubated for 48 hrs by Western blot analysis; type: cell-based; settings: dose 0.45-1.8 µM
Target sequence in this assay (P14618 2-531 limits assumed): as above

SW480 [6] = assay: Antimigratory activity against human SW480 cells; type: functional, cell-based
Pyruvate kinase PKM [7] = target: T1, Pyruvate kinase PKM; assay: Inhibition of PKM2/STAT3 in human HT-29 cells assessed as reduction in C-myc protein expression at 0.45 to 1.8 uM incubated for 48 hrs by Western blot analysis; type: cell-based; settings: dose 0.45-1.8 µM
Target sequence in this assay (P14618 2-531 limits assumed): as above

HT-29 [8] = assay: Induction of apoptosis in PKM2 knock down human HT-29 cells at 0.45 to 1.8 uM; type: functional, cell-based; settings: dose 0.45-1.8 µM
MDA-MB-231 = assay: Cytotoxicity against human MDA-MB-231 cells assessed as reduction in cell viability incubated for 48 hrs by MTT assay; type: functional, cell-based; settings: MDA-MB-231, 48 h
HT-29 [9] = assay: Antiproliferative activity against human HT-29 cells at 0.25 to 1 uM measured after 48 hrs by EdU staining based confocal microscopic analysis; type: functional, cell-based; settings: dose 0.25-1 µM
Pyruvate kinase PKM [10] = target: T1, Pyruvate kinase PKM; assay: Activation of human PKM2-C424A expressed in Escherichia coli BL21 (DE3) assessed as increase in PKM2-C424A tetramer formation by chemical cross-linking assay
Target sequence in this assay (P14618 2-531 limits assumed): as above

Pyruvate kinase PKM [11] = target: T1, Pyruvate kinase PKM; assay: Inhibition of PKM2/STAT3 in human HT-29 cells assessed as reduction in cyclin-D1 protein expression at 0.45 to 1.8 uM incubated for 48 hrs by Western blot analysis; type: cell-based; settings: dose 0.45-1.8 µM
Target sequence in this assay (P14618 2-531 limits assumed): as above

Pyruvate kinase PKM [12] = target: T1, Pyruvate kinase PKM; assay: Binding affinity to recombinant human PKM2 assessed as covalent adduct formation incubated for 1 hr by LC-MS/MS analysis; settings: filed as activator
HT-29 [13] = assay: Antitumor activity against human HT-29 cells xenografted in BALB/c mouse assessed as reduction in tumor weight at 15 to 30 mg/kg, ip administered once every two days for 2 weeks by vernier caliper method; type: functional, organism-based; settings: dose 15-30 mg/kg
HT-29 [14] = assay: Induction of intracellular ROS production in human HT-29 cells at 0.45 to 1.8 uM incubated for 48 hrs by DCFH-DA staining based flow cytometry analysis; type: functional, cell-based; settings: dose 0.45-1.8 µM
U2OS = assay: Cytotoxicity against human U2OS cells assessed as reduction in cell viability incubated for 48 hrs by MTT assay; type: functional, cell-based
SW480 [15] = assay: Induction of intracellular ROS production in human SW480 cells at 0.2 to 0.6 uM incubated for 48 hrs by DCFH-DA staining based flow cytometry analysis; type: functional, cell-based; settings: dose 0.2-0.6 µM
SW480 [16] = assay: Induction of cell cycle arrest in human […] cells assessed as accumulation of cells at G2/M phase after 48 hrs by PI staining based flow cytometric analysis; type: functional; settings: dose 0.2-0.6 µM
A549 = assay: cells; settings: Homo sapiens, A549, 48 h
HCT-116 = assay: Cytotoxicity against human HCT-116 cells assessed as reduction in cell viability incubated for 48 hrs by MTT assay; type: functional, cell-based; settings: HCT-116, 48 h
Pyruvate kinase PKM [17] = target: T1, Pyruvate kinase PKM; assay: Activation of PKM2 in human HT-29 cells assessed as increase in PKM2 tetramer formation by dynamic laser light scattering analysis; type: cell-based; settings: filed as activator
HT-29 [18] = assay: Cytotoxicity against human HT-29 cells assessed as reduction in cell viability incubated for 48 hrs by MTT assay; type: functional, cell-based; settings: HT-29, 48 h
Pyruvate kinase PKM [19] = target: T1, Pyruvate kinase PKM; assay: Inhibition of PKM2 dimer nuclear translocation in human HT-29 cells by immunostaining based analysis; type: cell-based
Pyruvate kinase PKM [20] = target: T1, Pyruvate kinase PKM; assay: Activation of recombinant human PKM2 incubated 30 mins by fluorescence microplate reader analysis
Target sequence in this assay (P14618 whole entry): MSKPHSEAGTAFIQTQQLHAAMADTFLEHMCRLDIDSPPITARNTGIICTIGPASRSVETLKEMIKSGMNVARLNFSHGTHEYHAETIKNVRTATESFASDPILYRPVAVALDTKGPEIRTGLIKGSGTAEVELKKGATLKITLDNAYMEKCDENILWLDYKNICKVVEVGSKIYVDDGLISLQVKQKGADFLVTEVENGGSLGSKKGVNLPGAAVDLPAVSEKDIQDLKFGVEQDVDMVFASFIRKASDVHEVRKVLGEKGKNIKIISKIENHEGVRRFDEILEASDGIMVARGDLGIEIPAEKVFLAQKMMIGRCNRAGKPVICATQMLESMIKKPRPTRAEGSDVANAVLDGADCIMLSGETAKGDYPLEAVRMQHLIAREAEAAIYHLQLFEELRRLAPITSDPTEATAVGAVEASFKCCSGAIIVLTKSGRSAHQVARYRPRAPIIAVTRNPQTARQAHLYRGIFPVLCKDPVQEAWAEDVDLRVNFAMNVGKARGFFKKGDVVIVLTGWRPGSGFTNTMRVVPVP

HT-29 [21] = assay: Inhibition of colony formation in human HT-29 cells incubated for 14 days by crystal violet staining based analysis; type: functional, cell-based; settings: dose 0.15-0.3 µM, time 14.0 day
Pyruvate kinase PKM [22] = target: T1, Pyruvate kinase PKM; assay: Activation of recombinant human PKM2 at 10 uM incubated 30 mins by fluorescence microplate reader analysis; settings: filed as activator
SW480 [23] = assay: Effect on mitochondrial membrane potential in human SW480 cells at 0.2 to 0.6 uM measured after 48 hrs by JC-1 staining based assay; type: functional, cell-based; settings: dose 0.2-0.6 µM
HT-29 [24] = assay: Inhibition of epithelial-mesenchymal transition in human HT-29 cells assessed as change in Snail-2 expression; type: functional, cell-based
HT-29 [25] = assay: Induction of apoptosis in human HT-29 cells after 48 hrs by Annexin V-PE and 7-AAD staining based flow cytometric analysis; type: functional, cell-based; settings: dose 0.45-1.8 µM
Pyruvate kinase PKM [26] = target: T1, Pyruvate kinase PKM; assay: Inhibition of PKM2/STAT3 in human HT-29 cells assessed as decrease in total STAT3 level at 0.45 to 1.8 uM after 48 hrs by Western blot analysis; type: cell-based; settings: dose 0.45-1.8 µM
HT-29 [27] = assay: Effect on total PKM2 protein expression in cytoplasm of human HT-29 cells at 0.45 to 1.8 uM after 48 hrs by Western blot analysis; type: functional, cell-based; settings: dose 0.45-1.8 µM
HT-29 [28] = assay: Effect on mitochondrial membrane potential in human HT-29 cells at 0.45 to 1.8 uM measured after 48 hrs by JC-1 staining based assay; type: functional, cell-based; settings: dose 0.45-1.8 µM
Pyruvate kinase PKM [29] = target: T1, Pyruvate kinase PKM; assay: Activation of PKM2 in human HT-29 cells assessed as decrease in extracellular acidification rate; type: cell-based; settings: filed as activator
SW480 [30] = assay: Antiproliferative activity against human SW480 cells at 0.1 to 0.4 uM measured after 48 hrs by EdU staining based confocal microscopic analysis; type: functional, cell-based; settings: dose 0.1-0.4 µM
HepG2 = assay: Cytotoxicity against human HepG2 cells assessed as reduction in cell viability incubated for 48 hrs by MTT assay; type: functional, cell-based; settings: HepG2, 48 h
Pyruvate kinase PKM [31] = target: T1, Pyruvate kinase PKM; assay: Inhibition of PKM2/STAT3 in human HT-29 cells assessed as decrease in phosphorylated STAT3 level at 0.45 to 1.8 uM after 48 hrs by Western blot analysis; type: cell-based; settings: dose 0.45-1.8 µM
HT-29 [32] = assay: Induction of cell cycle arrest in human HT-29 cells assessed as accumulation of cells at G2/M phase after 48 hrs by PI staining based flow cytometric analysis; type: functional; settings: dose 0.45-1.8 µM
HT-29 [33] = assay: Induction of apoptosis in human HT-29 cells assessed as increase in cleaved caspase-3 expression at 0.45 to 1.8 uM after 48 hrs by Western blotting analysis; type: functional, cell-based; settings: dose 0.45-1.8 µM
[34] = Toxicity in BALB/c mouse xenografted with human HT-29 cells assessed as decrease in body weight at 30 mg/kg, ip administered once every 2 days for 2 weeks and monitered every 2 days; type: organism-based; settings: in vivo, 336 h
SW480 [35] = assay: Cytotoxicity against human SW480 cells assessed as reduction in cell viability incubated for 48 hrs by MTT assay; type: functional, cell-based; settings: SW480, 48 h
[36] = Selectivity index, ratio of IC50 for human NCM460 cells to IC50 for human SW480 cells

Question: Which results are given for C=C1C(=O)O[C@H]2[C@H]1CC/C(COC(=O)c1ccc3nccc(Br)c3c1)=C/CC[C@@]1(C)O[C@@H]21?
Answer: Activity (HT-29 [1]): Active; inhibition (Pyruvate kinase PKM [2]): Active; Activity (SW480 [3]): Dose-Dependent Effect; Activity (Pyruvate kinase PKM [4]): Active; inhibition (Pyruvate kinase PKM [5]): Active; Activity (SW480 [6]): Active; inhibition (Pyruvate kinase PKM [7]): Active; Activity (HT-29 [8]): inactive; IC50 (MDA-MB-231): 1.03 µM; Activity (HT-29 [9]): Active; Activity (Pyruvate kinase PKM [10]): inactive; inhibition (Pyruvate kinase PKM [11]): Active; Activity (Pyruvate kinase PKM [12]): Active; Activity (HT-29 [13]): Active; Activity (HT-29 [14]): Active; IC50 (U2OS): 1.79 µM; Activity (SW480 [15]): Active; Activity (SW480 [16]): Dose-Dependent Effect; IC50 (A549): 1.67 µM; IC50 (HCT-116): 1 µM; Activity (Pyruvate kinase PKM [17]): Active; IC50 (HT-29 [18]): 0.66 µM; inhibition (Pyruvate kinase PKM [19]): Active; AC50 (Pyruvate kinase PKM [20]): 0.0863 µM; inhibition (HT-29 [21]): Dose-Dependent Effect; Activity (Pyruvate kinase PKM [22]): Active; Activity (SW480 [23]): Active; inhibition (HT-29 [24]): inactive; Activity (HT-29 [25]): Dose-Dependent Effect; inhibition (Pyruvate kinase PKM [26]): Active; Activity (HT-29 [27]): inactive; Activity (HT-29 [28]): Active; Activity (Pyruvate kinase PKM [29]): Active; Activity (SW480 [30]): Active; IC50 (HepG2): 3.9 µM; inhibition (Pyruvate kinase PKM [31]): Active; Activity (HT-29 [32]): Dose-Dependent Effect; Activity (HT-29 [33]): Active; Activity [34]: Non-Toxic; IC50 (SW480 [35]): 0.22 µM; Ratio IC50 [36]: 9.18
